Source: article PMC12686243, “Synthesis and preclinical evaluation of FAP-targeting radiotracers for PET and optical imaging” (EJNMMI Radiopharmacy and Chemistry, 2025)

What was measured:
[1] = molecular target: T1, hFAPα, recombinant protein (Homo sapiens, UniProt Q12884); assay: fluorometric enzyme inhibition assay for FAP; type: biochemical; conditions: Morrison equation for tight binding inhibitors; substrate Ala-Pro-AMC; mean ± SD
T1 construct: purchased
T1 sequence (Q12884 1-760): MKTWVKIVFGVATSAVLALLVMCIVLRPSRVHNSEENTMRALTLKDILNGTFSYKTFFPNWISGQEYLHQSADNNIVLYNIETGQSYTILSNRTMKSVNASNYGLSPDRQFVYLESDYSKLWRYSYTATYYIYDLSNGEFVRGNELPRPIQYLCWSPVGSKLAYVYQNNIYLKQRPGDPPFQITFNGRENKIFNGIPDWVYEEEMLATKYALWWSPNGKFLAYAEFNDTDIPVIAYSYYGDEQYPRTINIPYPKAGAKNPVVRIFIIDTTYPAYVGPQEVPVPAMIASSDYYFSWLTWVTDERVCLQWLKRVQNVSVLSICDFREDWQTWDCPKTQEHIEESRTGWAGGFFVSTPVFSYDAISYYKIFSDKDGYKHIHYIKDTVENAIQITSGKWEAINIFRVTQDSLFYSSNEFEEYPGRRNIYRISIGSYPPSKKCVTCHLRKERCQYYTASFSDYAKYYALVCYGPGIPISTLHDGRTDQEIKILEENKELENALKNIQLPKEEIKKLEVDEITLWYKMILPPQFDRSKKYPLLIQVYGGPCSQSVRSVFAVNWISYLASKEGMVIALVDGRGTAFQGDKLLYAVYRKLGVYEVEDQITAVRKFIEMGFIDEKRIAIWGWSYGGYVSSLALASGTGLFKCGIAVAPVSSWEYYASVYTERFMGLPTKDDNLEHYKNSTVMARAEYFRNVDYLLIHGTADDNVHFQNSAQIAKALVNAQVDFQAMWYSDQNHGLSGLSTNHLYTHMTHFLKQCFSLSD
Procedure: Affinity towards FAP was tested using a commercially available fluorometric assay. At the day of the experiment, all tested compounds were diluted in assay buffer (DPP assay buffer, BPS Bioscience, San Diego, CA, USA,) in a 1:1 dilution series, resulting in eleven concentrations, ranging from 2000 nM to 1.950 nM, equal to 200 nM to 0.195 nM per well. The substrate Ala-Pro-AMC (BPS Bioscience, concentration per well: 5 μM, Km = 244 μM (Edosada et al. [2006])) was pipetted along with the inhibitor into a 96-well plate. Subsequently, the enzyme (hFAPα, recombinant protein) was dissolved in assay buffer and added to the wells. The final concentration of DMSO per well was 0.2%. The 96-well plate was immediately loaded into a multimode plate reader (Biotek Cytation 5, Agilent, Santa Clara, CA, USA). The fluorescence intensity for each well was measured over a time course of 30 min with measurement intervals of 15 s, an excitation wavelength of 360 ± 20 nm and an emission wavelength of 450 ± 20 nm. Data (relative fluorescence units, RFU) over the total measurement time was analyzed by linear regression. The slope of the resulting graphs was analyzed over the inhibitor concentration. The enzyme inhibition constant Ki was calculated using the Morrison equation for tight binding inhibitors (Williams and Morrison [1979]). […]

[2] = molecular target: T2, human recombinant dipeptidylpeptidase IV (Homo sapiens, UniProt P27487); assay: fluorometric enzyme inhibition assay for DPPIV; type: biochemical
T2 construct: purchased Cayman Chemical
T2 sequence (P27487 whole entry): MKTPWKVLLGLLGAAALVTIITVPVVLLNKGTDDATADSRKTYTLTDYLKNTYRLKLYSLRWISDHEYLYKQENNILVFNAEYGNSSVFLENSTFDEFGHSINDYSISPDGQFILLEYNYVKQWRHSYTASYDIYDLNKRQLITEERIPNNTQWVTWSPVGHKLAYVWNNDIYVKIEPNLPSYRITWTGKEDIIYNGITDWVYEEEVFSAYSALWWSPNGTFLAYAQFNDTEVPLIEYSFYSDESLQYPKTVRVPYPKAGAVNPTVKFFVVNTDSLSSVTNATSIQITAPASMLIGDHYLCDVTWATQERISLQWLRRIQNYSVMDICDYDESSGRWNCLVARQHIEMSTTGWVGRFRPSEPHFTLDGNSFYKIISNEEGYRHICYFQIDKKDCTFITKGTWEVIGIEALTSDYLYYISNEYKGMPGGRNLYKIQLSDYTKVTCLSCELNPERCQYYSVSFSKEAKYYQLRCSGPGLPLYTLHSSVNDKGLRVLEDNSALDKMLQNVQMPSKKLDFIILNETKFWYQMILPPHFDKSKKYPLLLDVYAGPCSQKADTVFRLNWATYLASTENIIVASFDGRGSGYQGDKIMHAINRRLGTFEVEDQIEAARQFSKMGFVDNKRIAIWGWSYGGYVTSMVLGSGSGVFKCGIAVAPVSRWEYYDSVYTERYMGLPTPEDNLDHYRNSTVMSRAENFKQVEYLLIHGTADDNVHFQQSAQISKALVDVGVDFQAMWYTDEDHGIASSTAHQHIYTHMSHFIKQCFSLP
Procedure: The affinity towards DPPIV was determined using a commercially available inhibitor screening assay kit (Cayman Chemical, USA). The assay was performed according to the manufacturer’s instructions, and the data was analyzed as described above.

[3] = molecular target: T3, hFAP (vital hFAP-HT1080 cells) (Homo sapiens, UniProt Q12884); assay: real-time binding (LigandTracer) to vital hFAP-HT1080 cells; conditions: fluorescent vs radioactive detection
T3 construct: expressed in transfected cells; host or cells: HT1080 (human fibrosarcoma), lentiviral transduction
T3 sequence (Q12884 1-760): T1 sequence (Q12884 1-760)
Procedure: To determine binding kinetics (association rate constant ka, dissociation rate constant kd, and thermodynamic dissociation constant KD), real-time assay systems (LigandTracer Yellow/White for radioactivity and Green with Red/NIR + and NIR + + /IR detectors for fluorescence; Ridgeview Instruments AB, Sweden) were utilized. In a 100 mm petri dish, cells or tissue sections in medium (3–4 mL total volume), are located on one side, while the radioactive or fluorescent signal is detected on the opposite, elevated side. Rotation on an inclined base in set intervals (30 s) allows continuous measurement of signal in the target (cells/tissue) against background area (no cells/tissue). Experiments were performed at room temperature, using CO2-independent medium, usually with 0.5–1% w/v bovine serum albumin, (#1ETA, Carl Roth, Germany). Association was determined through incubation with two distinct concentrations (between 1–5 and 4.5–10 nM, 60 min each, additive) for each compound. For that purpose, the same ligand preparation was typically employed for radioactive and fluorescent detection. This was followed by replacement with fresh medium and observation of dissociation for at least 2 h. Additionally, the dissociation rate constant was further investigated beyond 6 h, either using fluorescent detection or via gallium-67 (t1/2: 78.3 h). This approach provides reliable kinetic measurements in a 1:1 interaction setting, as previously shown (Onell and Andersson [2005]).
Binding data was evaluated using TraceDrawer (1.9.2, Ridgeview Instruments AB, Sweden). Traces were imported, potential spikes (> 100% sudden signal increases over previous datapoints) removed and each trace was normalized to its own baseline (= 0%) and highest value (= 100%, typically at the end of the second association phase). This allows comparing data across experiments and ultimately global fitting, without differences, e.g. of molar activity, affecting it. Typically, at least 3 individual traces per ligand, substrate and modality were recorded. Data was fitted in TraceDrawer using a 1:1 interaction model, with/without accounting for bulk effect. A 1:1 interaction is the simplest model, as it describes the binding of a ligand at a constant concentration to the target, with each one molecule of ligand binding to one molecule of target.

[4] = tested on: hFAP-HT1080 and WT-HT1080 xenografts; assay: in vivo fluorescence imaging of xenograft-bearing mice; design: species or system nude mice
Description: Female athymic NMRI-nude mice (Rj:NMRI-Foxn1nu, Janvier Labs, France or Charles River, Germany) between 8 and 20 weeks of age were used. Subsequently, the prepared cells (1.0–2.0 × 10^6 hFAP/WT-HT1080 per animal) were subcutaneously injected into the right and left thigh, respectively. Xenograft tissue for real-time binding experiments was derived from animals injected with both target-positive and negative cells, however only showing growth of one tumor entity. When approaching endpoints, mice were anesthetized and euthanized. The tumor was quickly removed, frozen in − 45 °C 2-methylbutane and stored in sealed tubes at − 80 °C.
Optical imaging was performed using a multimodal IVIS-CT (Perkin Elmer, USA). Compounds were injected [0.09 mg/kg (n = 1)/0.33 mg/kg (n = 3) for NODAGA-FAP647; 0.17 mg/kg (n = 3) for NODAGA-FAP800, diluted in 150 µL of sterile 0.9% NaCl solution] into the lateral tail vein, either directly or via catheter. Fluorescence imaging started ~ 2 min post injection for 2–3 h, with 1 min, 3–5 min and 10 min intervals, along with a white-light image. Additional scans were performed after 24 h and, if applicable, later. The fluorescence of the respective fluorophore was captured (NODAGA-FAP647: λEx/Em = 640/680 nm, NODAGA-FAP800: λEx/Em = 745/800 nm). Emitted fluorescence intensity was analyzed (Perkin Elmer, Living Image 4.7.4) in raw data images.

[5] = stability in human serum; type: in vitro ADME; conditions: 37 °C; for degradation in human serum: four-hour time point; for fraction of intact tracer: human serum, after 24 h
Procedure: Stability testing in human serum (Sigma Aldrich, Darmstadt, Germany) was carried out by incubation of the ^67Ga-labeled radiotracer at 37 °C. After defined time points an aliquot was withdrawn and the serum proteins precipitated, by dilution with “supersol” (20% v/v ethanol, 5% v/v 5 mM EDTA, 0.5% v/v Triton X-100, 0.1% m/v saponin in aqueous solution). After centrifugation, the supernatant was analyzed by radio-HPLC.

[6] = molecular target: T4, hFAP (hFAP-HT1080 xenograft tissue sections) (Homo sapiens, UniProt Q12884); assay: real-time binding to frozen hFAP-HT1080 xenograft tissue sections; conditions: ^67Ga-labeled
T4 construct: expressed in transfected cells; host or cells: HT1080 (human fibrosarcoma), lentiviral transduction
T4 sequence (Q12884 1-760): T1 sequence (Q12884 1-760)
Procedure: HT1080 cells were chosen as cellular and xenograft models, due to their similarity to FAP expressing fibroblasts and its origin (fibrosarcoma). For that purpose, HT1080 wild-type cells (WT-HT1080; European Collection of Authenticated Cell Cultures, ECACC, United Kingdom) were used as control. Cells were cultured in DMEM with GlutaMax (#31966021, Gibco), supplemented with 10% v/v fetal bovine serum (#S0615 Sigma Aldrich, Germany), 1% penicillin/streptomycin (#15140–122, Gibco, USA), 1% Non-essential amino acids under normoxic (5% CO2; 37 °C) conditions. Upon reaching ~ 90% confluency, cells were passaged. Typically, cultures were discarded after ~ 20 passages. […] Prior to in vitro experiments, cells were washed, trypsinized (0.05% Trypsin–EDTA, Gibco, USA), taken up in medium and an aliquot was counted using a CASY1 cell counter (Model TT, Schaerfe System, Reutlingen, Germany). […]
To determine binding kinetics (association rate constant ka, dissociation rate constant kd, and thermodynamic dissociation constant KD), real-time assay systems (LigandTracer Yellow/White for radioactivity and Green with Red/NIR + and NIR + + /IR detectors for fluorescence; Ridgeview Instruments AB, Sweden) were utilized. In a 100 mm petri dish, cells or tissue sections in medium (3–4 mL total volume), are located on one side, while the radioactive or fluorescent signal is detected on the opposite, elevated side. […]

Row | Structure (SMILES) | Ki [1] | IC50 [2] | faster association with fluorescent compared to radioactive detection [3] | faster dissociation with fluorescent compared to radioactive detection [3] | ratio hFAP-HT1080/muscle fluorescence ([4]; 120 min post injection) | ratio hFAP/WT-HT1080 tumor fluorescence ([4]; 120 min post injection) | fluorescence in hFAP-HT1080 tumor higher than in WT-HT1080 tumor or muscle ([4]; 24 h post injection) | reduction of fluorescence signal in hFAP-HT1080 tumor ([4]; after 24 h post injection) | WT-HT1080 to muscle ratio ([4]; over the imaging period) | time to plateau of fluorescence in hFAP-HT1080 tumor ([4]; post injection) | degradation in human serum [5] | fraction of intact tracer [5] | Kd [6]
1 | CN(CCCN1CCN(C(=O)[C@H](CCCCNC(=O)CC[C@H](C(=O)O)N2CCN(CC(=O)O)CCN(CC(=O)O)CC2)NC(=O)CCOCCOCCOCCOCCNC(=O)CCCCCN2/C(=C/C=C3\CCCC(/C=C/C4=[N+](CCCCS(=O)(=O)[O-])c5ccc(S(=O)(=O)O)cc5C4(C)C)=C3Oc3ccc(S(=O)(=O)O)cc3)C(C)(C)c3cc(S(=O)(=O)O)ccc32)CC1)c1ccc2nccc(C(=O)NCC(=O)N3CC(F)(F)C[C@H]3C#N)c2c1 [NODAGA-FAP800] | 0.343 ± 0.153 nM | > 10000 nM | ~ 50% | ~ 30% | ~ 1.9 | ~ 2.2 | 60% | 43% | ~ 1 | ~ 20 min |  |  | 
2 | CN(CCCN1CCN(C(=O)[C@H](CCCCNC(=O)CC[C@H](C(=O)[O-])N2CCN(CC(=O)[O-])CCN(CC(=O)[O-])CC2)NC(=O)CCOCCOCCOCCOCCNC(=O)CCCCC[N+]2=C(C=CC=CC=C3N(CCCS(=O)(=O)O)c4ccc(S(=O)(=O)O)cc4C3(C)C)C(C)(CCCS(=O)(=O)O)c3cc(S(=O)(=O)[O-])ccc32)CC1)c1ccc2nccc(C(=O)NCC(=O)N3CC(F)(F)C[C@H]3C#N)c2c1.[67Ga+3] (stereo partly shown) [[^67Ga]Ga-NODAGA-FAP647] |  |  |  |  |  |  |  |  |  |  | no degradation | 56% | 0.025 nM
3 | CN(CCCN1CCN(C(=O)[C@H](CCCCNC(=O)CC[C@H](C(=O)[O-])N2CCN(CC(=O)[O-])CCN(CC(=O)[O-])CC2)NC(=O)CCOCCOCCOCCOCCNC(=O)CCCCCN2C(=CC=C3CCCC(C=CC4=[N+](CCCCS(=O)(=O)[O-])c5ccc(S(=O)(=O)O)cc5C4(C)C)=C3Oc3ccc(S(=O)(=O)O)cc3)C(C)(C)c3cc(S(=O)(=O)O)ccc32)CC1)c1ccc2nccc(C(=O)NCC(=O)N3CC(F)(F)C[C@H]3C#N)c2c1.[67Ga+3] [[^67Ga]Ga-NODAGA-FAP800] |  |  |  |  |  |  |  |  |  |  | no degradation | 22% | 0.018 nM
